The source of these data is patent publication US11612612B2, “Pharmaceutical compositions” (CIPLA LIMITED, priority 2016, dated 2023).

Counter-ions that a name gives are not always drawn.

A short description of data set [1]: Caco-2 bidirectional assay, effect of piperine on permeability of darunavir. The class given is in vitro ADME. Conditions: human, Caco-2, pH 7.4. On the procedure: (§1) Cells were treated with drugs as follows:
(§2) The sample were analyzed on LCMS-MS.
A general note: Caco-2 monolayers are a common model of the intestinal barrier.

A further data set in a line: in vitro. Conditions: human, Caco-2, pH 7.4.
A short description of data set [2]: Caco-2 bidirectional assay, effect of piperine on permeability of dolutegravir. Conditions: human, Caco-2, pH 7.4. On the procedure:
as §1
(§3) The samples were analyzed on LCMS-MS.

Data set [3] is described as follows: Caco-2 bidirectional assay, effect of piperine and tetrahydropiperine on permeability of TDF. The conditions noted are these: human, Caco-2, pH 7.4.
Experimental: Caco-2 cells were cultured in MEM media with 10% serum and seeded at a density of 75000 cells per mL and cultured for 21 days in a 24-well trans-well plate at 37° C., 5% CO2. The monolayer integrity was checked intermittently (Day 0-21) using Trans Epithelial Electric Resistance (TEER). Cells were treated with drugs as follows:
400 μL samples were added to the wells as per the plate setup to the apical side in duplicates with 800 μL HBSS pH 7.4 in the basal wells. Samples were collected at 60, 90 and 120 minutes from the basal side. Mass balance samples at 0 and 120 minutes were collected from the apical side.
For B-A, 800 μL of the respective dilutions were added to the basal side in duplicates with 400 μL HBSS pH 7.4 in the apical wells. Samples were collected at 60, 90 and 120 minutes from the apical side. Mass balance samples at 0 and 120 minutes were collected from the basal side.
The sample were analyzed on LCMS-MS. At the end of the experiment the monolayer integrity was checked using and Lucifer yellow, calculating the % rejection of Lucifer yellow by incubating cells with 100 μg/mL Lucifer.
For Lucifer yellow, % Lucifer Yellow Passage=[RFU (test)−RFU (blank)/RFU (equilibrium)−RFU (blank)]*100
Data set [4] has as its system Caco-2 cells. Nature of the data set: Caco-2 bidirectional assay, effect of piperine on permeability of dolutegravir. The conditions noted are these: in words. On the procedure: as §1, §3
The test system of data set [5] is Caco-2 cells. As to the kind of experiment: Caco-2 unidirectional assay (A-B), permeability. On the procedure:
as §1
(§4) Stock preparations: 10 mM stocks of all the drugs were prepared in DMSO. The test concentrations were further prepared in HBSS buffer containing 10 mM MES hydrate pH 6.8 as per the plate plan. Also, HBSS buffer with 10 mM HEPES with pH 7.4 was prepared.
as §2

The nature of data set [6]: Caco-2 unidirectional assay (A-B), permeability. The conditions noted are these: human, Caco-2. On the procedure: as §1, §4, §2
In another data set the target is P-gp (Homo sapiens, UniProt P08183). Nature of the data set: in vitro. The class given is cell-based. Conditions: pH 7.4, drug alone (Digoxine 10 μM; TAF 100 μM). On the procedure: as §1, §2
For data set [7] the following is noted: male, Wistar, rat, in vivo, 300 mg. On the procedure: The objective of this non-GLP study was to determine the pharmacokinetics of the TDF alone and in combinations with piperine in different groups of male Wistar rats after single dose intravenous administration and oral administration. This study was performed with approval from the Institutional Animal Ethics Committee (IAEC) in accordance with the requirement of Committee for the Purpose of Control and Supervision of Experiments on Animals (CPCSEA), India.
An equal volume (4.72 mL) of each formulation was mixed in separate vials to get 5 mL/kg.
An equal volume (5.61 mL) of each formulation was mixed in separate vials to get 5 mL/kg.
Bioanalysis was performed using fit-for-purpose LC-MS/MS method for the quantification of TDF and PMPA in rat plasma samples. […]
Plasma pharmacokinetic parameters were calculated using the non-compartmental analysis tool of Phoenix software (Version 6.3) and were determined from individual animals in each group. The peak plasma concentration (Cmax), time to achieve peak plasma concentration (Tmax), the area under the plasma concentration-time curve (AUC0-t and AUCinf), AUC Extra (%), elimination half-life (T½), clearance (CL), volume of distribution Vd (L/kg) and Mean residence time (MRT) were calculated from the intravenous group. […]

Sequence of P-gp (P08183 whole entry): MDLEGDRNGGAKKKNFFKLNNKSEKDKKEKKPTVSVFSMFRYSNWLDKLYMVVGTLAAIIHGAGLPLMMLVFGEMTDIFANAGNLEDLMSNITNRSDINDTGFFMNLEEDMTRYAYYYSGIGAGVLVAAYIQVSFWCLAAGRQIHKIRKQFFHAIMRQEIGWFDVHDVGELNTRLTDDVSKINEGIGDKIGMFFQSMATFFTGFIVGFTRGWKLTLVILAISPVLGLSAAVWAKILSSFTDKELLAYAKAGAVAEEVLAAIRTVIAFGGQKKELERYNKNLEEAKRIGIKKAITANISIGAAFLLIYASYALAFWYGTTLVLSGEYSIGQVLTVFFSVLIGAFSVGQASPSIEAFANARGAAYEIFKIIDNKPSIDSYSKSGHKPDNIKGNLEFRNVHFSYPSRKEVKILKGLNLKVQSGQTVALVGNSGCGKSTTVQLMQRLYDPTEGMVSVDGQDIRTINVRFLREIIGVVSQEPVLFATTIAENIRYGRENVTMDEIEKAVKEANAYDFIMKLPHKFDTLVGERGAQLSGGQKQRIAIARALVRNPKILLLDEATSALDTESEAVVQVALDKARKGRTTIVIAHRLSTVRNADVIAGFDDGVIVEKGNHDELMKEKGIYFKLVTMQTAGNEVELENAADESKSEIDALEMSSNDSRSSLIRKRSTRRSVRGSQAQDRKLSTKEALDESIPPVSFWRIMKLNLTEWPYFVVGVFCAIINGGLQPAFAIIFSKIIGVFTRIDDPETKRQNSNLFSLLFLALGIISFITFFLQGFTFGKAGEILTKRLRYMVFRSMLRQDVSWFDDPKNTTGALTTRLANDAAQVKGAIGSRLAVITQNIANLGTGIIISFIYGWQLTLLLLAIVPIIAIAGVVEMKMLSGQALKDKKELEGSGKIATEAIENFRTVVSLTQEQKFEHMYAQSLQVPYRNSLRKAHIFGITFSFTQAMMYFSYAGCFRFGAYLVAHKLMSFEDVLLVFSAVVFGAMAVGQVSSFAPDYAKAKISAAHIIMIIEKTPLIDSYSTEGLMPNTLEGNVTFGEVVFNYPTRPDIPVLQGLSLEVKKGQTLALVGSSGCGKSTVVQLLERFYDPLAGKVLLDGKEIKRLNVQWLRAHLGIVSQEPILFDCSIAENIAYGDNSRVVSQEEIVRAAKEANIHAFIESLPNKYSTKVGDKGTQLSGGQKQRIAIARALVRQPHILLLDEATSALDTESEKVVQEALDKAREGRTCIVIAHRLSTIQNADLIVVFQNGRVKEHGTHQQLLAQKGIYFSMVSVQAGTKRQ

`CC(C)CN(C[C@@H](O)[C@H](Cc1ccccc1)NC(=O)O[C@H]1CO[C@H]2OCC[C@H]21)S(=O)(=O)c1ccc(N)cc1` [Darunavir]: in data set [1], the Papp A→B – broadly, how fast a substance crosses the layer from the apical side – at 120 min is 8.83 ×10⁻⁶ cm/s and the apparent permeability from basolateral to apical (Papp B→A) (commonly the apparent permeability from the basolateral to the apical side of a cell layer) at 120 min came to 21.7 ×10⁻⁶ cm/s.
Take `C[C@H]1O[C@@H](O[C@H]2[C@@H](O)C[C@H](O[C@H]3[C@@H](O)C[C@H](O[C@H]4CC[C@@]5(C)[C@H](CC[C@@H]6[C@@H]5C[C@@H](O)[C@]5(C)[C@@H](C7=CC(=O)OC7)CC[C@]65O)C4)O[C@@H]3C)O[C@@H]2C)C[C@H](O)[C@@H]1O` [Digoxin]: the Papp A→B at 120 min in [1] was 1.12 ×10⁻⁶ cm/s; in data set [2] it was 4.5 ×10⁻⁶ cm/s; in [3], 0.816 ×10⁻⁶ cm/s. In addition, the Papp B→A at 120 min in data set [1] is 14.2 ×10⁻⁶ cm/s; in [2], 28.9 ×10⁻⁶ cm/s; in data set [3], 15.5 ×10⁻⁶ cm/s. For the same compound, the apparent permeability from apical to basolateral (Papp A→B) in the data set “in vitro” was 1.94 ×10⁻⁶ cm/s. The compound also came in with a Papp B→A in the data set “in vitro” of 20.5 ×10⁻⁶ cm/s.
`C[C@@H]1CCO[C@H]2Cn3cc(C(=O)NCc4ccc(F)cc4F)c(=O)c(O)c3C(=O)N12` [Dolutegravir]: the Permeability classification entry with Caco-2 cells [4] was “high permeable”. In [2], this compound returned a Papp A→B at 120 min of 40.2 ×10⁻⁶ cm/s and a Papp B→A at 120 min of 84.3 ×10⁻⁶ cm/s.
Consider `CC(C)OC(=O)[C@H](C)N[P@](=O)(CO[C@H](C)Cn1cnc2c(N)ncnc21)Oc1ccccc1` [TAF, tenofovir alafenamide fumarate], for which the Permeability classification result in the data set with Caco-2 cells [5] (in words) is “low to moderately permeable”. In [6], the Papp A→B at 120 min, 50 μM was determined as 5.86 ×10⁻⁶ cm/s and the Papp A→B at 120 min, 100 μM came to 5.39 ×10⁻⁶ cm/s. Moreover, the inhibition (in general, the percentage by which the read-out fell short of the control) at 120 min, 100 μM at P-gp was 0%. In the data set “in vitro”, the apical-to-basolateral permeability (Papp A→B) at 120 min is 3.45 ×10⁻⁶ cm/s and the Papp B→A at 120 min was determined as 17.8 ×10⁻⁶ cm/s.
On to `CC(C)OC(=O)OCOP(=O)(CO[C@H](C)Cn1cnc2c(N)ncnc21)OCOC(=O)OC(C)C` [TDF, tenofovir disoproxil fumarate], for which the Permeability classification result in the data set on Caco-2 cells [5] (Caco-2) was “low to moderately permeable”. Also, in data set [6], the Papp A→B at 120 min, 50 μM worked out at 6.58 ×10⁻⁶ cm/s and the Papp A→B at 120 min, 100 μM came out at 6.35 ×10⁻⁶ cm/s. Besides, the Bioavailability in data set [7] stood at 34.39±6.07. In [3], this compound had a Papp A→B at 120 min of 2.55 ×10⁻⁶ cm/s; a Papp A→B at 120 min, 200 μM of 3.77 ×10⁻⁶ cm/s; a Papp B→A at 120 min of 15.2 ×10⁻⁶ cm/s; an apparent permeability from basolateral to apical (Papp B→A) at 120 min, 200 μM of 14.3 ×10⁻⁶ cm/s. The efflux ratio (usually a quotient of directional permeabilities that is used to spot active efflux) at 120 min, 200 μM in data set [3] stood at 3.79.
